In patent publication US11291671B2, “Solid drug implants for intracochlear delivery of therapeutics for the treatment of Otic disorders” (O-Ray Pharma, Inc., priority 2012, dated 2022):

Experiments:
patients = settings: cited from earlier work
guinea pig cochleae [1] = assay: Intracochlear fluticasone proprionate for otoprotection of cisplatin dependent hearing loss, click ABR threshold; format: in vivo; settings: control ear (no implant), day 28, after cisplatin; baseline day 14 23.9±2.3 dB; P≤0.0001
Excerpt: Surgery: Albino guinea pigs were used for the single dose intracochlear implantation experiment. The guinea pigs received a single implant in one of their ears, and the other ear was used as internal control. Under general anesthesia, a postauricular incision was made over the bulla in the experimental ear. A small hole was drilled through the bulla using a posterior approach. The ear was positioned with the round window facing horizontally and superiorly. A 32-gauge needle was used to puncture the round window and the particle was put in contact with the perilymph in the scala tympani. A blood drop was placed over the round window injection site to avoid leakage of perilymphatic fluids and a suture was used to close the wound. Auditory Measurements; see FIGS. 5A and 5B: Animals were anesthetized for auditory testing. […] Lower ABR LS Means reading indicates better hearing. Error bars indicate Standard Error. Study Design: Particles were created and implanted into guinea pig cochleae as described in Examples 1-2. The study design is as follows: • Each animal: one ear implanted with extended release fluticasone particle (“implant ear”), other ear served as internal control (“control ear”). • Hearing was assessed via click (broad frequency) ABRs and DPOAE

guinea pig cochleae [2] = assay: Intracochlear fluticasone proprionate for otoprotection of cisplatin dependent hearing loss, DPOAE; format: in vivo; settings: 14 days after cisplatin application, no implant
Excerpt: Surgery: Albino guinea pigs were used for the single dose intracochlear implantation experiment. The guinea pigs received a single implant in one of their ears, and the other ear was used as internal control. Under general anesthesia, a postauricular incision was made over the bulla in the experimental ear. A small hole was drilled through the bulla using a posterior approach. The ear was positioned with the round window facing horizontally and superiorly. A 32-gauge needle was used to puncture the round window and the particle was put in contact with the perilymph in the scala tympani. A blood drop was placed over the round window injection site to avoid leakage of perilymphatic fluids and a suture was used to close the wound. DPOAE (2f1-f2) Input/output functions were recorded. Response amplitude was recorded as a function of L2 (L1-L2=10 dB); primaries incremented together in 5 dB steps (from 20 to 80 dB SPL) spanning the frequency range f2=5.6-45.2 kHz (f2/f1=1.2). […] Higher DPOAE reading indicates better hearing. Error bars indicate Standard Error. […] The study design is as follows: • Each animal: one ear implanted with extended release fluticasone particle (“implant ear”), other ear served as internal control (“control ear”). • Hearing was assessed via click (broad frequency) ABRs and DPOAE

| SMILES | Patients displaying some vestibular impairment (patients; one gram daily for 60 to 120 days) [%] | Incidence of vestibular impairment (patients; two grams per day) [%] | ABR threshold, control ears following cisplatin treatment at day 28 (guinea pig cochleae [1]) [dB] | DPOAE responses, control ears (guinea pig cochleae [2]) |
| --- | --- | --- | --- | --- |
| [H]/N=C(/N)N[C@H]1[C@H](O)[C@@H](O)[C@H](O[C@@H]2O[C@@H](C)[C@](O)(C=O)[C@H]2O[C@@H]2O[C@@H](CO)[C@H](O)[C@@H](O)[C@@H]2NC)[C@@H](N/C(N)=N\[H])[C@@H]1O [streptomycin] | 25 | 75 |  |  |
| N.N.[Cl][Pt][Cl] [cisplatin, cis-diammine-dichloroplatinum(II)] |  |  | 40.7±2.5 | absent |
